The values that follow come from patent US20230146422A1, “ANIMAL MODEL FOR STUDYING CANCER IMMUNOTHERAPY” (ONCOFACTORY, priority 2020, published 2023).

Assay [1] concerns CD4 and CD8 T cells of grafted human PBMCs. The assay is described as follows: Activation and exhaustion markers on T cells of PBMCs grafted or co-grafted with MDAMB436 cells in avian embryo, with or without Keytruda (FIG. 11C). As to conditions: FACS 48 hours post-grafting. In kind it is in vivo. As to the method:
(11C) PBMC were co-grafted with tumoral cells: Pmela (a PDL1 negative cell line) or MDAMB436 (a PDL1 weak positive cell line).
Markers of activation (CD69, HLADR on the left) and exhaustion (CTLA4, PD1, on the right) were determined in PBMCs after co-grafting with human tumoral cells (Pmela or MDAM) in an avian embryo. Values are expressed in frequency over CD4+ and CD8+ populations in ratios of total identified lymphocytes (CD3+CD4+ and CD3+CD8+). Standard Deviations show data from a pool of PBMC from different healthy donors. Left Graph: CD4+, right graph: CD8+.
Then, MDAMB436 cells or Pmela cells were co-grafted with human PBMC cells.
At two days (48 hours) post-grafting, PBMCs were isolated from grafted embryos and analyzed by FACS.
Finally, grafted PBMCs were isolated by Percoll density separation and stained cells for markers of activation (CD69/HLADR) and exhaustion (CTLA4/PD1).
Standard Deviations show data from a pool of PBMC from different healthy donors. Values are expressed in ratios of the specific marker over CD3+CD4+ and CD3+CD8+ populations.

The test system of assay [2] is human melanoma A375 cell line. Nature of the assay: Tumor volume in avian embryo co-grafted with A375 melanoma cells and human PBMCs (FIG. 12A). As to conditions: A375 + human PBMCs co-graft, Keytruda injected 24 hours post-grafting, vs excipient, two to three days post-grafting. In kind it is in vivo. As to the method: To determine whether tumors composed of mixed human tumoral cells and immune cells are sensitive to anti-PD1 antibody treatment, the human melanoma A375 cell line was selected for the experiments. Indeed, this cell line was recently reported to express significant levels of PDL1 and to respond to anti-PD1 immunotherapy (Kuryk L, Møller A W, Jaderberg M, 2019).
A375 melanoma cells were cultured and co-grafted with human PBMC cells as previously described.
Two to three days post-grafting, embryos were collected and processed for imaging with a confocal light sheet microscope. The volume of the tumors was quantified using IMARIS software.

For assay [3], the system named is tumor sample from a patient affected by a metastatic melanoma. Nature of the assay: Metastasis number and volume in avian embryo co-grafted with human PBMCs and patient metastatic melanoma sample (FIG. 12C). In kind it is in vivo. As to conditions: patient metastatic melanoma sample + human PBMCs co-graft, vs NaCl. As to the method: Metastasis number (on the left) and volume of metastatic tumors (in the middle) have been assessed. On the right, pictures show the extension of the tumor after NaCl treatment (on top) and after Keytruda treatment (on the bottom).
(§1) The same experiment of example 9 was performed with other cancer cells: • MDAMB 231, well-known to be responsive to immunotherapy, and • a tumor sample issued from a patient affected by a metastatic melanoma.
Also, the number of metastases formed by patient tumoral cells in the avian embryonic tissues has been assessed by the following of fluorescently-labelled tumor cells, and subsequent quantification of the fluorescent signal in the embryo.

Assay [4] deals with T lymphocytes of PBMCs co-grafted with MDAMD231 tumoral cells. The assay is described as follows: Activation and exhaustion markers on immune cells co-grafted with MDAMD231 cells in avian embryo, Keytruda treatment (FIG. 11D). Format: in vivo, human. Conditions: PBMCs co-grafted with MDAMD231, Keytruda 5 mg/ml, 24 hours, vs NaCl. The source says: Expression of activation and exhaustion markers on co-grafted immune cells was quantified.

Assay [5] deals with MDAMB 231 tumoral cells. Nature of the assay: Tumor volume in avian embryo co-grafted with MDAMB 231 cells and human PBMCs (FIG. 12B). As to conditions: MDAMB 231 + human PBMCs co-graft, vs NaCl, raw and BSA-normalized. In kind it is in vivo. As to the method:
as §1

Regarding Pemzolibrumab [Keytruda], in assay [1] (embryo treated 24 hours with Keytruda (PD1 blocking)), the “levels of CTLA4 on the CD8 compartment” value is “very high levels”. Also, the “PD1 expression/accessibility on CD8 T cells” value in assay [1] (embryo treated 24 hours with Keytruda) was “minimization”. The “volume of the tumor” value in assay [2] is recorded as “decreases significantly”. Also, in assay [3], the “metastasis number (ability of tumor cells to metastasis)” value was “significantly decreased” and the metastatic-volume result is on record as “significant reduction”. In addition, in assay [4], the “expression of exhaustion marker PD1” value is listed as “decreased” and the “expression of exhaustion marker TIM-3” value was “decreased”. Moreover, in assay [5], the tumor volume entry is listed as “significant reduction”.
